Source: patent US20200179331A1, “Peptide-Artesunate Conjugates as Targeted Anti-Cancer Agents” (priority 2017, published 2020)
Read-outs that look alike come from different tables or passages of the source. Residues, ends and D or L forms follow the SMILES beside them. *: point of attachment. X1 = C[C@H]1[C@H](OC(=O)CCC(=O)*)O[C@@H]2O[C@@]3(C)CC[C@H]4[C@H](C)CC[C@@H]1[C@@]24OO3

Assays:
[1] = reference [50]; cell line not given; read-out: IC50, anticancer ability of commonly used anticancer drugs; cited from earlier work
[2] = Dichlorofluorescein assay (reactive oxygen species formation with Fe2+); settings: for reactive oxygen species formation, DCF fluorescence: 20 μM, Fe2+ 5-25 μM, 10 μM DCFH-DA, 30 min
Procedure: The assay was carried out following a reported procedure either in presence of hydrogen peroxide, Artesunate with and without Fe2+, and ART-HER2 conjugate with and without Fe2+[43]. In this assay non-fluorescent DCFH-DA (2′, 7′-Dichlorofluorescin diacetate treated with methanol and NaOH, as described in reference 43) is converted to a fluorescent derivative, known as dichlorofluorescein (DCF), in presence of an oxidizing agent (e.g. reactive oxygen species). By quantifying the concentration of fluorescent DCF, the concentration of oxidizing agent can be determined.
Formation of free radical species from the reaction of Artesunate with […] was additionally measured by dichlorofluorescein assays. Oxidation of 2′, 7′-Dichlorofluorescin diacetate (DCFH-DA) by reactive oxygen species generates dichlorofluorescein, which is fluorescent (˜520 nm).

[3] = MTT assay, Caco-2 cells (HER2-positive)
Procedure: (§1) CCD-18 cells were maintained in Dulbecco's minimal essential medium (DMEM, ATCC) supplemented with 10% fetal bovine serum (FBS, ATCC), 100 U/ml penicillin G, and 100 μg/ml streptomycin at 37° C. in a humid atmosphere of 5% CO2 atmosphere. Caco-2 cells were maintained in Dulbecco's minimal essential medium (DMEM, ATCC) supplemented with 20% fetal bovine serum (FBS,ATCC), 100 U/ml penicillin G, and 100 μg/ml streptomycin at 37° C. in a humid atmosphere of 5% CO2 atmosphere; culture medium was replaced with a fresh medium every 2-3 days. All experiments were performed with actively growing cells in logarithmic growth phase.
(§2) The assay was carried out following a reported procedure. In brief, approximately 1,000 to 5,000 cells were plated per well in 96-well plate. The plates were incubated at 37° C. for 48 or 72 hours in a humidified, 5% CO2 atmosphere. Cells were incubated either with Artesunate or with ART-HER2 conjugate at various concentrations. To measure mitochondrial activity, a metric for cell viability, 15 μL of [3-{4, 5-dimethylthiazol-2-yl)-2, 5-diphenyltetrazolium bromide (MTT) was added to each well and incubated at 37° C. for 4 hours in a humidified, 5% CO2 atmosphere. After incubation, 100 μl of the solubilization solution/stop mix was added to each well. The blue formazan product formed by reduction of MTT by mitochondrial dehydrogenase in viable cells was then measured by absorbance at 570 nm.
(§3) The cytotoxicity of Artesunate was then investigated with two human colon cell lines, a normal colon cell line CCD-18 and a cancerous colon cell line Caco-2, using the well-established MTT assay. […] Dose-dependent assays were performed in 96-well format and IC50 values were determined by plotting the cell viability against Artesunate concentration (FIG. 11 and FIG. 12).

[4] = MTT assay, CCD-18 cells (HER2-negative normal colon); settings: human, CCD-18 cells (normal colon, HER2-negative)
Procedure: as §1
The assay was carried out following a reported procedure. In brief, approximately 1,000 to 5,000 cells were plated per well in 96-well plate. The plates were incubated at 37° C. for 48 or 72 hours in a humidified, 5% CO2 atmosphere. […] The blue formazan product formed by reduction of MTT by mitochondrial dehydrogenase in viable cells was then measured by absorbance at 570 nm.
as §3

[5] = Deoxyribose degradation assay (free radical formation with Fe2+); settings: 200 μM, Fe2+ 5-25 μM, 10 minutes
Procedure: This assay quantifies the formation of hydroxyl radicals or peroxyl radicals. The assay was carried out following a reported procedure. Briefly, 500 μL reaction volumes containing 10 mM 2-deoxyribose, 100 μM ascorbic acid, and various concentrations of Fe2+ were prepared. Degradation of 2-deoxyribose was initiated either by addition of 200 μM of hydrogen peroxide or 200 μM of Artesunate. The reaction was allowed to run for 10 minutes and then stopped by the addition of 500 μL of 10% (w/v) trichloroacetic acid (TCA) followed by 0.5 mL 1% 2-thiobarbituric acid (TBA). After heating at 80° C. for 15 minutes, the absorbance at 532 nm was measured.
To measure the concentration of free radical species generated by Artesunate reacting with Fe^2+, 2-deoxyribose degradation assays were formed (FIG. 6). Degradation of 2-deoxyribose by action of hydrogen peroxide is shown as a positive control and 2-deoxyribose alone is shown as a negative control (FIG. 6).

HCT116 cells = test: Sulforhodamine B (SRB) colorimetric assay, HCT116 proliferation; type: cell-based; settings: Homo sapiens, HCT-116, 96-well format, read-out: IC50, inhibition of the proliferation of HCT116 cells
Procedure: Mouse B16-F10 melanoma cancer cells and human HCT116 colon cancer cells were grown in culture respectively in DMEM medium or McCoy's 5 A medium supplemented with 10% fetal bovine serum and 5% antibiotic in a 5% CO2 atmosphere at 37° C. Cultures were divided 1:2 every 48 h to an approximate cell density of 1.2 million cells per ml and used for experiments after 24 hours of growth in culture.

Caco-2 cells = test: MTT assay, Caco-2 cells (HER2-positive)
Procedure: as §1, §2, §3

Question: Which IC50 [1] does the source give for `O=c1[nH]cc(F)c(=O)[nH]1` [5-FU, 5-fluorouracil] here?
Answer: The IC50 was about 15 µM.

Question: Which “free radical species formation in presence of Fe2+ (in words)” value ([2]; 2-deoxyribose degradation and dichlorofluorescein assays, increasing Fe2+) does the source give for `CC(C)C[C@H](NC(=O)[C@H](CO)NC(=O)[C@H](Cc1ccc(O)cc1)NC(=O)[C@H](CS)NC(=O)[C@H](CS)NC(=O)[C@H](CCCCN)NC(=O)CNC(=O)[C@H](CO)NC(=O)CNC(=O)CCC(=O)O[C@@H]1O[C@@H]2O[C@@]3(C)CC[C@H]4[C@H](C)CC[C@@H]([C@H]1C)[C@@]24OO3)C(N)=O` [ART-HER2 conjugate] (X1-GSGKCCYSL-NH2) here?
Answer: The value was “increases in presence of increasing levels of Fe^+”.

Question: What about the IC50 [3] of the same compound?
Answer: The IC50 was about 15 µM.

Question: What does the source list for `C[C@H]1[C@H](OC(=O)CCC(=O)O)O[C@@H]2O[C@@]3(C)CC[C@H]4[C@H](C)CC[C@@H]1[C@@]24OO3` [Artesunate]?
Answer: IC50 [4]: ~5.6 µM; free radical generation, 2-deoxyribose degradation (absorbance 532 nm) [5]: reacts with Fe^2+ to generate free radical species that are sufficient to degrade 2-deoxyribose; IC50 (HCT116 cells): ~0.63 µM; reactive oxygen species formation, DCF fluorescence [2]: Fe^2+-dependent activation of dichlorofluorescein fluorescence; fold higher toxicity against Caco-2 cells compared to CCD-18 cells (Caco-2 cells; Caco-2): ~5.7 fold; IC50 (Caco-2 cells; Homo sapiens, Caco-2, read-out: IC50, cytotoxicity against Caco-2 cells): ~0.97 µM

Question: Which “reactive oxygen species formation, DCF fluorescence” value [2] does the source give for `OO` [H2O2, hydrogen peroxide] here?
Answer: Its value is “Fe^2+-dependent activation of dichlorofluorescein fluorescence”.

Question: With `N.N.O=C([O-])C1(C(=O)[O-])CCC1.[Pt+2]` [carboplatin] as the compound, how does the IC50 [1] read?
Answer: The IC50 was about 12 µM.
